Structures are written as SMILES.

This note sets out measurements from ChEMBL document CHEMBL5236599, “Design, synthesis and biological evaluation of cajanonic acid A analogues as potent PPAR γ antagonists” (Bioorg Med Chem Lett, 2023).

A short description of data set [1]: Induction of insulin-sensitizing activity in insulin-resistant human HepG2 cells assessed as increase in glucose consumption at 0.1 uM relative to control. It counts as functional.
Data set [2] in a line: Induction of insulin-sensitizing activity in insulin-resistant human HepG2 cells assessed as glucose consumption at 0.1 uM (reference value: 5.83 +/-0.101 mM). The format is functional.
Data set [3] can be described thus: Induction of insulin-sensitizing activity in insulin-resistant mouse 3T3-L1 cells assessed as glucose consumption at 0.1 uM (reference value: 3.354 +/- 0.342 mM). The format is functional.
Data set [4] is described as follows: Induction of insulin-sensitizing activity in insulin-resistant mouse 3T3-L1 cells assessed as increase in glucose consumption at 0.1 uM relative to control. The format is functional.
A short description of data set [5]: Cytotoxicity against mouse 3T3-L1 cells assessed as cell viability at 0.1 uM. The conditions noted are these: read-out: Activity. The format is toxicity, cell-based.
The target of data set [6] is T1, Peroxisome proliferator-activated receptor gamma (Homo sapiens) (UniProt P37231).
T1 sequence (whole entry): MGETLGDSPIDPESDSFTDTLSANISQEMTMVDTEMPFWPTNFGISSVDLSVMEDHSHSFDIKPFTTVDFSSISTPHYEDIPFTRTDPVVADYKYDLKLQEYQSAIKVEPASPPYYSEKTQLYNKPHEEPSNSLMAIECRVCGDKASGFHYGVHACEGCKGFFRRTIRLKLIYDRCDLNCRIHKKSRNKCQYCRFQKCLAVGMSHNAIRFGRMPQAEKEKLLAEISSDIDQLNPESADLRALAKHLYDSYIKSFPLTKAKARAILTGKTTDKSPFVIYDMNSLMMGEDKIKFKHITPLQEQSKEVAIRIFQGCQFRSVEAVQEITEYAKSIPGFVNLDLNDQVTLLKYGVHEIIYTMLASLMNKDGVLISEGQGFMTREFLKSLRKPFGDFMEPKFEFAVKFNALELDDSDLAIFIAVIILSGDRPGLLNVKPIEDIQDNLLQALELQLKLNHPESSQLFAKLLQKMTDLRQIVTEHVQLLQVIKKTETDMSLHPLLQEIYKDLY
Nature of the data set: Antagonist activity at PPAR-gamma (unknown origin) transfected in human HEK293 cells assessed as decrease in rosiglitazone-induced receptor transactivation at 10 uM by dual-luciferase reporter gene assay relative to control. It counts as cell-based. The conditions noted are these: filed as antagonist.

Data set [7] is filed under the species Mus musculus. The data set can be described thus: Hypoglycemic activity in db/db mouse assessed as AUC of blood glucose level by oral glucose tolerance test (reference value: 114.8 mmol.min/L). The format is functional.
In data set [8] the target is T1, Peroxisome proliferator-activated receptor gamma (Homo sapiens). The data set can be described thus: Antagonist activity at PPAR-gamma (unknown origin) transfected in human HEK293 cells assessed as decrease in rosiglitazone-induced receptor transactivation at 1 uM by dual-luciferase reporter gene assay relative to control. The format is cell-based.
The nature of data set [9]: Cytotoxicity against human HepG2 cells assessed as cell viability at 0.1 uM. It counts as toxicity, cell-based. The note with it: read-out: Activity.
A short description of data set [10]: Induction of insulin-sensitizing activity in insulin-resistant mouse 3T3-L1 cells assessed as increase in glucose consumption at 0.1 uM relative to rosiglitazone. The format is functional.
The target of data set [11] is T2, Peroxisome proliferator-activated receptor gamma (Mus musculus, UniProt P37238).
T2 sequence (P37238 whole entry): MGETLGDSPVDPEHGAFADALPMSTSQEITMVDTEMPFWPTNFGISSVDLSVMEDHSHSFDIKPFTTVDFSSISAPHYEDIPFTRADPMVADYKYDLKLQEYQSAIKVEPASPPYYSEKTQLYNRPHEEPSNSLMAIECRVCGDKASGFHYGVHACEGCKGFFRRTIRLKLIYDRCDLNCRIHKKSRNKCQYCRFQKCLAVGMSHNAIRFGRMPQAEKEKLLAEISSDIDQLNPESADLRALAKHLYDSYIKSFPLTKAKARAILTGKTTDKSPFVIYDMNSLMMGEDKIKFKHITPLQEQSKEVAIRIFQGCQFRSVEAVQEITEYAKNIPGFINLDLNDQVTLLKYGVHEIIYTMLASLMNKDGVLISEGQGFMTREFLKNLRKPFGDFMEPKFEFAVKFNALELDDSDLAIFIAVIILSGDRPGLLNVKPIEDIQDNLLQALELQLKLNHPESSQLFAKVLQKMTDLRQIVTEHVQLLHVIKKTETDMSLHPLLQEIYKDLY
The data set can be described thus: Agonist activity at PPAR-gamma in mouse 3T3-L1 cells assessed as increase in adipogenesis by measuring increase in oil red staining at 1 uM by Oil-red O staining based analysis relative to control. The format is toxicity, cell-based. The note with it: 3t3-l1, 1 µM.

Data set [12] has as its target T3, Peroxisome proliferator-activated receptor gamma (Homo sapiens, UniProt P37231).
T3 sequence (P37231 whole entry): T1 sequence (whole entry)
Nature of the data set: Displacement of Fluormone Pan-PPAR Green from human recombinant GST-tagged PPARgamma LBD (201 to 475 residues) expressed in insect cells incubated for 2 hrs in dark by LantahScreen TR-FRET assay.

Consider `COc1cc(CC(=O)c2cccc(-c3ccc(F)cc3)c2)c(C(=O)O)c(O)c1CC=C(C)C`, for which the Activity is reported as -10.9% in [1], 5.195 mM in [2], 3.741 mM in [3] and -0.2% in [4]. The viability at 0.1 µM in data set [5] is < 50%.

For the compound `COc1cc(CC(=O)c2cccc(-c3ccccc3C(F)(F)F)c2)c(C(=O)O)c(O)c1CC=C(C)C`, the inhibition in data set [6] was found to be 40.5%. The Activity in data set [1] was 43.51%; in [2], 8.368 mM; in [3] it was 4.333 mM; in data set [4], 15.58%. Moreover, in [5], the viability at 0.1 µM is < 50%.

For `CCc1ccc(CCOc2ccc(CC3SC(=O)NC3=O)cc2)nc1` (stereo unspecified) [PIOGLITAZONE], the AUC in data set [7] was 94.8 mmol·min/L.

`COc1cc(O)c(C(=O)O)c(CC(=O)c2cccc(-c3cccnc3)c2)c1CC=C(C)C`: the values for the inhibition in [6] and in [8] were 82.5% and -3.8%, respectively. Besides, the Activity was 1.49% in data set [1], 5.917 mM in data set [2], 3.107 mM in [3] and -17.14% in data set [4]. The viability at 0.1 µM in data set [9] was < 80%.

For `COc1cc(O)c(C(=O)O)c(CC(=O)c2cccc(-c3cncnc3)c2)c1CC=C(C)C`, the inhibition worked out at 55% in [6] and 11.5% in data set [8]. Further, the Activity is 5.76% in data set [1], 6.171 mM in data set [2], 3.405 mM in data set [3] and -11.08% in data set [4]. For the same compound, the viability at 0.1 µM in data set [9] is < 80%.

Consider `COc1cc(O)c(C(=O)O)c(CC(=O)c2cccc(-c3ccccc3Cl)c2)c1CC=C(C)C`, for which the inhibition in data set [6] is 96.2%; in data set [8] (filed as antagonist), 50.2%. Besides, the Activity was 33.27% in [1]; 7.771 mM in data set [2]; 6.471 mM in data set [3]; 72.61% in [4]; 7.04% in [11]. Besides, the “fold change (FC)” value in data set [10] was found to be 1.6. In addition, the AUC in [7] came out at 106 mmol·min/L.

For `Cc1c(C)n(Cc2ccc(C(C)(C)C(=O)O)cc2)c2ccc(C(=O)N[C@@H](C)c3cccc(C4CC4)c3)cc12`, the 50% inhibitory concentration (IC50) in data set [12] amounted to 0.108 µM.
